In PubChem BioAssay (NCI):
“And” between values parts separate entries of the source, which are not always exact repeats. Equal entries are not always repeated.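 Assay format: 96-well plates, 48-hour exposure. GI50: concentration for 50% inhibition of growth. Definition used: TGI = concentration required for complete inhibition of growth.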

Assays:
Assay in all cases: NCI tumour cell line growth inhibition, 48 h
786-0 renal = tested on: 786-0 renal
ACHN renal = tested on: ACHN renal
CAKI-1 renal = tested on: CAKI-1 renal
CCRF-CEM leukemia = tested on: CCRF-CEM leukemia
COLO 205 colon = tested on: COLO 205 colon
DMS 273 small cell lung = tested on: DMS 273 small cell lung
DU-145 prostate = tested on: DU-145 prostate
EKVX NSCLC = tested on: EKVX NSCLC
HCT-116 colon = tested on: HCT-116 colon
HOP-18 NSCLC = tested on: HOP-18 NSCLC
HOP-62 NSCLC = tested on: HOP-62 NSCLC
HOP-92 NSCLC = tested on: HOP-92 NSCLC
HS 578T breast = tested on: HS 578T breast
HT29 colon = tested on: HT29 colon
IGROV1 ovarian = tested on: IGROV1 ovarian
K-562 leukemia = tested on: K-562 leukemia
KM12 colon = tested on: KM12 colon
KM20L2 colon = tested on: KM20L2 colon
LOX IMVI melanoma = tested on: LOX IMVI melanoma
M14 melanoma = tested on: M14 melanoma
M19-MEL melanoma = tested on: M19-MEL melanoma
MALME-3M melanoma = tested on: MALME-3M melanoma
MCF7 breast = tested on: MCF7 breast
MDA-MB-231 breast = tested on: MDA-MB-231 breast
MDA-MB-435 = tested on: MDA-MB-435
MOLT-4 leukemia = tested on: MOLT-4 leukemia
NCI-H226 lung = tested on: NCI-H226 lung
NCI-H23 lung = tested on: NCI-H23 lung
NCI-H460 lung = tested on: NCI-H460 lung
NCI-H522 lung = tested on: NCI-H522 lung
OVCAR-3 ovarian = tested on: OVCAR-3 ovarian
OVCAR-4 ovarian = tested on: OVCAR-4 ovarian
OVCAR-5 ovarian = tested on: OVCAR-5 ovarian
P388/ADR leukemia = tested on: P388/ADR leukemia
PC-3 prostate = tested on: PC-3 prostate
RPMI-8226 leukemia = tested on: RPMI-8226 leukemia
SF-268 CNS = tested on: SF-268 CNS
SF-295 CNS = tested on: SF-295 CNS
SF-539 CNS = tested on: SF-539 CNS
SK-MEL-2 melanoma = tested on: SK-MEL-2 melanoma
SK-MEL-5 melanoma = tested on: SK-MEL-5 melanoma
SK-OV-3 ovarian = tested on: SK-OV-3 ovarian
SN12K1 renal = tested on: SN12K1 renal
SNB-75 CNS = tested on: SNB-75 CNS
SNB-78 CNS = tested on: SNB-78 CNS
SR leukemia = tested on: SR leukemia
SW-620 colon = tested on: SW-620 colon
T-47D breast = tested on: T-47D breast
TK-10 renal = tested on: TK-10 renal
U251 CNS = tested on: U251 CNS
UACC-257 melanoma = tested on: UACC-257 melanoma
UACC-62 melanoma = tested on: UACC-62 melanoma
UO-31 renal = tested on: UO-31 renal
XF 498 CNS = tested on: XF 498 CNS

C/C(=C\COc1ccc2ccc(=O)oc2c1)C1=CC(=O)C(C)(C)O1
TGI (786-0 renal): 12.9 µM | TGI (ACHN renal): 15.9 µM | GI50 (CAKI-1 renal): 3.77 µM | TGI (CAKI-1 renal): 14.6 µM and 19.8 µM | GI50 (CCRF-CEM leukemia): 2.28 µM | TGI (CCRF-CEM leukemia): 7.11 µM and 21.4 µM | GI50 (COLO 205 colon): 2.73 µM | TGI (COLO 205 colon): 6.64 µM and 8.96 µM | TGI (DMS 273 small cell lung): 27.9 µM | TGI (DU-145 prostate): 7.34 µM | GI50 (EKVX NSCLC): 4.9 µM | TGI (EKVX NSCLC): 28.2 µM and 30.6 µM | GI50 (HCT-116 colon): 2.84 µM | TGI (HCT-116 colon): 7.57 µM and 6.64 µM | TGI (HOP-18 NSCLC): 80.5 µM | GI50 (HOP-62 NSCLC): 6.12 µM | TGI (HOP-62 NSCLC): 39.7 µM and 14.1 µM | GI50 (HOP-92 NSCLC): 2.38 µM | TGI (HOP-92 NSCLC): 7.24 µM and 9.92 µM | TGI (HS 578T breast): 7.3 µM | GI50 (HT29 colon): 3.55 µM | TGI (HT29 colon): 13.3 µM and 7.83 µM | GI50 (IGROV1 ovarian): 2.73 µM | TGI (IGROV1 ovarian): 9.02 µM and 22.1 µM | GI50 (K-562 leukemia): 1.85 µM | GI50 (KM12 colon): 2.66 µM and 2.35 µM | TGI (KM12 colon): 9.77 µM and 8.59 µM | TGI (KM20L2 colon): 8.53 µM | GI50 (LOX IMVI melanoma): 2.2 µM | TGI (LOX IMVI melanoma): 9.69 µM and 7.47 µM | TGI (M14 melanoma): 16.3 µM | TGI (M19-MEL melanoma): 14.6 µM | TGI (MALME-3M melanoma): 25.6 µM and 14.8 µM | GI50 (MCF7 breast): 2.35 µM and 1.09 µM | TGI (MCF7 breast): 12.9 µM and 5.4 µM | TGI (MDA-MB-231 breast): 22.9 µM | TGI (MDA-MB-435): 13.2 µM | GI50 (MOLT-4 leukemia): 3.25 µM | TGI (MOLT-4 leukemia): 15 µM and 20.2 µM | GI50 (NCI-H226 lung): 2.64 µM | TGI (NCI-H226 lung): 7.24 µM and 10.2 µM | GI50 (NCI-H23 lung): 2.79 µM | TGI (NCI-H23 lung): 12.3 µM and 8.98 µM | GI50 (NCI-H460 lung): 2.61 µM and 4.07 µM | TGI (NCI-H460 lung): 6.29 µM and 11.5 µM | GI50 (NCI-H522 lung): 2.37 µM and 0.804 µM | TGI (NCI-H522 lung): 7.73 µM and 3.76 µM | GI50 (OVCAR-3 ovarian): 2.44 µM | TGI (OVCAR-3 ovarian): 5.55 µM and 9.43 µM | GI50 (OVCAR-4 ovarian): 4.3 µM | TGI (OVCAR-4 ovarian): 24.8 µM and 7.56 µM | GI50 (OVCAR-5 ovarian): 3.19 µM | TGI (OVCAR-5 ovarian): 10.8 µM and 20.9 µM | TGI (P388/ADR leukemia): 7.3 µM | TGI (PC-3 prostate): 23.3 µM | TGI (RPMI-8226 leukemia): 6.2 µM and 15.7 µM | GI50 (SF-268 CNS): 4.74 µM | TGI (SF-268 CNS): 14.9 µM and 14.3 µM | GI50 (SF-295 CNS): 4.3 µM | TGI (SF-295 CNS): 20.4 µM and 8.41 µM | TGI (SF-539 CNS): 4.88 µM and 8.64 µM | GI50 (SK-MEL-2 melanoma): 4.19 µM | TGI (SK-MEL-2 melanoma): 23.2 µM and 15.1 µM | GI50 (SK-MEL-5 melanoma): 2.72 µM | TGI (SK-MEL-5 melanoma): 13.3 µM and 6.95 µM | GI50 (SK-OV-3 ovarian): 3.06 µM | TGI (SK-OV-3 ovarian): 8.72 µM and 34.1 µM | TGI (SN12K1 renal): 9.97 µM | GI50 (SNB-75 CNS): 3.55 µM | TGI (SNB-75 CNS): 14.6 µM and 15.4 µM | TGI (SNB-78 CNS): 61.3 µM | TGI (SR leukemia): 4.92 µM | GI50 (SW-620 colon): 2.27 µM | TGI (SW-620 colon): 5.58 µM and 14.7 µM | TGI (T-47D breast): 30.6 µM | TGI (TK-10 renal): 16.7 µM | GI50 (U251 CNS): 2.7 µM | TGI (U251 CNS): 10.1 µM and 8.61 µM | GI50 (UACC-257 melanoma): 7.22 µM | TGI (UACC-257 melanoma): 29.7 µM and 11.3 µM | GI50 (UACC-62 melanoma): 2.3 µM | TGI (UACC-62 melanoma): 6.43 µM and 10.5 µM | GI50 (UO-31 renal): 3.83 µM | TGI (UO-31 renal): 14.7 µM and 14 µM | TGI (XF 498 CNS): 7.74 µM
